# In patent US8399681B2, “Substituted aminothiazolone indazoles as estrogen related receptor-alpha modulators” (Janssen Pharmaceutica NV, priority 2009, dated 2013):
# Target: T1, ERR1 (also known as ERR-α or ERR-1) (Homo sapiens, UniProt P11474)
# T1 sequence (P11474 193-421 limits assumed): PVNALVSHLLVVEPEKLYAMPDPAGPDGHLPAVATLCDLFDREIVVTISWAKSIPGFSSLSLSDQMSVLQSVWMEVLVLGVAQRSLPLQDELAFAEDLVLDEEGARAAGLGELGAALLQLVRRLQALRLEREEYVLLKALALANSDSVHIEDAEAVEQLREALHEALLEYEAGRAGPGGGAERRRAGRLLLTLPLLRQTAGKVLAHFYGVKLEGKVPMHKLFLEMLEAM
# Test: TR-FRET assay (disruption of co-activator peptide binding)
# Assay type: biochemical
# Conditions: 6His-tagged ERR1 LBD, GST-hSRC2 co-activator polypeptide; average of 3 independent experiments
# Summary of the method: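 His6-ERR1 LBD (6 nM) with GST-SRC-2 peptide (6 nM), anti-GST Eu cryptate (30 nM) and anti-His XL665 (7.5 nM) in Tris pH 8/KCl/DTT/BSA buffer, equilibrated 4-18 h at 25 °C. Ex 340, em 615/665 nm; hyperbolic dose-response fit, mean of 3 experiments.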
row,Compound,EC50
1,"CC(C)(C)N1CCN(C2=NC(=O)/C(=C/c3ccc4c(cnn4Cc4ccc(Cl)cc4C(F)(F)F)c3)S2)CC1 [Example 84, 2-(4-tert-Butyl-piperazin-1-yl)-5-[1-(4-chloro-2-trifluoromethyl-benzyl)-1H-indazol-5-ylmethylene]-thiazol-4-one]",39 nM
2,"N[C@@H]1C[C@H](CO)N(C2=NC(=O)/C(=C/c3ccc4c(cnn4Cc4ccc(C(F)(F)F)cc4C(F)(F)F)c3)S2)C1 [Example 258, 2-[(2R,4R)-4-Amino-2-(hydroxymethyl)pyrrolidin-1-yl]-5-({1-[2,4-bis(trifluoromethyl)benzyl]-1H-indazol-5-yl}methylidene)-1,3-thiazol-4(5H)-one]",30 nM
3,"O=C1N=C(N2CCN(CCO)CC2)S/C1=C\c1ccc2c(cnn2Cc2ccc(Cl)cc2Cl)c1 [Compound 14, 5-[1-(2,4-Dichloro-benzyl)-1H-indazol-5-ylmethylene]-2-[4-(2-hydroxy-ethyl)-piperazin-1-yl]thiazol-4-one]",68 nM
4,"O=C1N=C(N2CCC(C(=O)O)CC2)S/C1=C\c1ccc2c(cnn2Cc2ccc(F)cc2C(F)(F)F)c1 [Example 176, 1-{5-[1-(4-Fluoro-2-trifluoromethyl-benzyl)-1H-indazol-5-ylmethylene]-4-oxo-4,5-dihydro-thiazol-2-yl}-piperidine-4-carboxylic acid]",139 nM
5,"N#Cc1nn(Cc2ccc(Cl)cc2C(F)(F)F)c2ccc(/C=C3\SC(N4CCN(CC5CC5)CC4)=NC3=O)cc12 [Example 224, 1-[4-Chloro-2-(trifluoromethyl)benzyl]-5-({2-[4-(cyclopropylmethyl)piperazin-1-yl]-4-oxo-1,3-thiazol-5(4H)-ylidene}methyl)-1H-indazole-3-carbonitrile]",70 nM
6,"CN1CCN(C2=NC(=O)/C(=C/c3ccc4c(c3)c(C#N)nn4Cc3ccc(Cl)cc3C(F)(F)F)S2)CC1(C)C [Example 222, 1-[4-Chloro-2-(trifluoromethyl)benzyl]-5-{[4-oxo-2-(3,3,4-trimethylpiperazin-1-yl)-1,3-thiazol-5(4H)-ylidene]methyl}-1H-indazole-3-carbonitrile]",20 nM
7,"O=C1N=C(N2C[C@@H]3C[C@H]2CN3)S/C1=C\c1ccc2c(cnn2Cc2ccc(C(F)(F)F)cc2C(F)(F)F)c1 [Example 69, 5-[1-(2,4-Bis-trifluoromethyl-benzyl)-1H-indazol-5-ylmethylene]-2-(2S,5S-diaza-bicyclo[2.2.1]hept-2-yl)-thiazol-4-one]",26 nM
8,"O=C1N=C(N2CCO[C@H](CO)C2)S/C1=C\c1ccc2c(cnn2Cc2ncccc2C(F)(F)F)c1 [Example 281, 2-[(2S)-2-(Hydroxymethyl)morpholin-4-yl]-5-[(1-{[3-(trifluoromethyl)pyridin-2-yl]methyl}-1H-indazol-5-yl)methylidene]-1,3-thiazol-4(5H)-one]",590 nM
9,"CC(C)(O)c1ccc(Cn2ncc3cc(/C=C4\SC(N5CCN[C@@H](CO)C5)=NC4=O)ccc32)c(Cl)c1 [Example 229, 5-({1-[2-Chloro-4-(1-hydroxy-1-methylethyl)benzyl]-1H-indazol-5-yl}methylidene)-2-[3-(R)-(hydroxymethyl)piperazin-1-yl]-1,3-thiazol-4(5H)-one]",580 nM
10,"O=C1N=C(N2CCCNCC2)S/C1=C\c1ccc2c(cnn2Cc2ccc(C(F)(F)F)cc2C(F)(F)F)c1 [Example 55, 5-[1-(2,4-Bis-trifluoromethyl-benzyl)-1H-indazol-5-ylmethylene]-2-[1,4]diazepan-1-yl-thiazol-4-one]",61 nM
11,"CC(N[C@H]1CCN(C2=NC(=O)/C(=C/c3ccc4c(cnn4Cc4ccc(Cl)cc4C(F)(F)F)c3)S2)C1)C(N)=O (stereo partly drawn) [Example 265, N-2-{(3S)-1-[5-({1-[4-Chloro-2-(trifluoromethyl)benzyl]-1H-indazol-5-yl}methylidene)-4-oxo-4,5-dihydro-1,3-thiazol-2-yl]pyrrolidin-3-yl}alaninamide]",38 nM
12,"O=C1N=C(N2CCN(CC(F)(F)F)CC2)S/C1=C\c1ccc2c(cnn2Cc2ccc(Cl)cc2C(F)(F)F)c1 [Example 58, 5-[1-(4-Chloro-2-trifluoromethyl-benzyl)-1H-indazol-5-ylmethylene]-2-[4-(2,2,2-trifluoro-ethyl)-piperazin-1-yl]-thiazol-4-one]",42 nM
13,"N[C@@H]1CCCN(C2=NC(=O)/C(=C/c3ccc4c(cnn4Cc4ccc(Cl)cc4C(F)(F)F)c3)S2)C1 [Example 59, 2-(3-(R)-Amino-piperidin-1-yl)-5-[1-(4-chloro-2-trifluoromethyl-benzyl)-1H-indazol-5-ylmethylene]-thiazol-4-one]",23 nM
14,"O=C1N=C(N2CCN(CCO)CC2)S/C1=C\c1ccc2c(cnn2Cc2ccc(F)cc2C(F)(F)F)c1 [Compound 4, 5-[1-(4-Fluoro-2-trifluoromethyl-benzyl)-1H-indazol-5-ylmethylene]-2-[4-(2-hydroxy-ethyl)-piperazin-1-yl]-thiazol-4-one]",92 nM
15,CC(C)(O)c1ccc(Cn2ncc3cc(/C=C4\SC(N5CCC(C(=O)O)CC5)=NC4=O)ccc32)c(C(F)(F)F)c1 [Example 245],235 nM
16,"O=C1N=C(N2CC(F)C2)S/C1=C\c1ccc2c(cnn2Cc2ccc(Cl)cc2C(F)(F)F)c1 [Example 149, 5-[1-(4-Chloro-2-trifluoromethyl-benzyl)-1H-indazol-5-ylmethylene]-2-(3-fluoro-azetidin-1-yl)-thiazol-4-one]",55 nM
17,"O=C1N=C(N2CCN(C(=O)C3CC3)[C@@H](CO)C2)S/C1=C\c1ccc2c(cnn2Cc2ccc(C(F)(F)F)cc2C(F)(F)F)c1 [Example 215, 5-({1-[2,4-Bis(trifluoromethyl)benzyl]-1H-indazol-5-yl}methylidene)-2-[4-(cyclopropylcarbonyl)-3-(R)-(hydroxymethyl)piperazin-1-yl]-1,3-thiazol-4(5H)-one]",48 nM

# Compounds with a lower EC50, results first:
row,EC50,Compound
1,17 nM,"C[C@H]1CN(C2=NC(=O)/C(=C/c3ccc4c(cnn4Cc4ccc(Cl)cc4C(F)(F)F)c3)S2)[C@@H](C)CN1 [Example 65, 5-[1-(4-Chloro-2-trifluoromethyl-benzyl)-1H-indazol-5-ylmethylene]-2-(2-(S),5-(S)-dimethyl-piperazin-1-yl)-thiazol-4-one]"
2,14 nM,"O=C1N=C(N2CCO[C@@H](CO)C2)S/C1=C\c1ccc2c(cnn2Cc2ccc(C(F)(F)F)cc2C(F)(F)F)c1 [Example 172, 5-[1-(2,4-Bis-trifluoromethyl-benzyl)-1H-indazol-5-ylmethylene]-2(R)-(2-hydroxymethyl-morpholin-4-yl)-thiazol-4-one]"
3,13 nM,"COCC(=O)N1[C@H](C)CN(C2=NC(=O)/C(=C/c3ccc4c(cnn4Cc4ccc(Cl)cc4C(F)(F)F)c3)S2)C[C@@H]1C [Example 88, 5-[1-(4-Chloro-2-trifluoromethyl-benzyl)-1H-indazol-5-ylmethylene]-2-[4-(2-methoxy-acetyl)cis-3,5-dimethyl-piperazin-1-yl]-thiazol-4-one]"
4,12.7 nM,"O=C1N=C(N2CCN[C@@H](CO)C2)S/C1=C\c1ccc2c(c1)c(Cl)nn2Cc1ccc(Cl)cc1C(F)(F)F [Example 187, 5-[3-Chloro-1-(4-chloro-2-trifluoromethyl-benzyl)-1H-indazol-5-ylmethylene]-2-(3-(R)-hydroxymethyl-piperazin-1-yl)-thiazol-4-one]"
5,11 nM,"C[C@@H]1CN(C)CCN1C1=NC(=O)/C(=C/c2ccc3c(cnn3Cc3ccc(Cl)cc3C(F)(F)F)c2)S1 [Example 193, 5-({1-[4-Chloro-2-(trifluoromethyl)benzyl]-1H-indazol-5-yl}methylidene)-2-(2-(R),4-dimethylpiperazin-1-yl)-1,3-thiazol-4(5H)-one]"
6,9 nM,"CN1CCN(C2=NC(=O)/C(=C/c3ccc4c(cnn4Cc4ccc(C(F)(F)F)cc4C(F)(F)F)c3)S2)CC1CCO (stereo not shown) [Example 168, 5-[1-(2,4-Bis-trifluoromethyl-benzyl)-1H-indazol-5-ylmethylene]-2-[3-(2-hydroxy-ethyl)-4-methyl-piperazin-1-yl]-thiazol-4-one]"
7,8.3 nM,O=C(O)CN1CCN(C2=NC(=O)/C(=C/c3ccc4c(cnn4Cc4ccc(Cl)cc4C(F)(F)F)c3)S2)CC1 [Example 117]
8,8 nM,"CNC(=O)[C@H]1CN(C2=NC(=O)/C(=C/c3ccc4c(cnn4Cc4ccc(Cl)cc4C(F)(F)F)c3)S2)CCN1 [Example 226, (2R)-4-[5-({1-[4-Chloro-2-(trifluoromethyl)benzyl]-1H-indazol-5-yl}methylidene)-4-oxo-4,5-dihydro-1,3-thiazol-2-yl]-N-methylpiperazine-2-carboxamide]"
9,6.9 nM,"CS(=O)(=O)NC1CCN(C2=NC(=O)/C(=C/c3ccc4c(cnn4Cc4ccc(Cl)cc4C(F)(F)F)c3)S2)CC1 [Example 111, N-(1-{5-[1-(4-Chloro-2-trifluoromethyl-benzyl)-1H-indazol-5-ylmethylene]-4-oxo-4,5-dihydro-thiazol-2-yl}-piperidin-4-yl)-methanesulfonamide]"
10,5.3 nM,"O=C1N=C(N2CCC[C@H](C(=O)O)C2)S/C1=C\c1ccc2c(cnn2Cc2ccc(C(F)(F)F)cc2C(F)(F)F)c1 [Example 37, 1-{5-[1-(2,4-Bis-trifluoromethyl-benzyl)-1H-indazol-5-ylmethylene]-4-oxo-4,5-dihydro-thiazol-2-yl}-piperidine-3-(S)-carboxylic acid]"
11,5 nM,"COC[C@@H]1CN(C2=NC(=O)/C(=C/c3ccc4c(cnn4Cc4ccc(Cl)cc4C(F)(F)F)c3)S2)CCO1 [Example 235, 5-({1-[4-Chloro-2-(trifluoromethyl)benzyl]-1H-indazol-5-yl}methylidene)-2-[2-(S)-(methoxymethyl)morpholin-4-yl]-1,3-thiazol-4(5H)-one]"
